Experiments:
GPER [1] = biological target: T1, GPER (Homo sapiens, UniProt Q99527); assay: Calcium mobilization antagonism assay in indo1-AM-loaded HL-60 cells (against EC80 of G-1); type: cell-based; details: Table 3; HL-60 cells endogenously expressing GPER; mean ± SD of three IC50 values from triplicates; read-out: IC50 (nM) of the inhibition of calcium mobilization
T1 construct: HL-60 cells (a human promyelocytic leukemia cell line) which endogenously expresses GPER; host or cells: HL-60
Method: Human Myelocytic Leukemia (HL-60) cells were grown in phenol red free media containing 10% […] fetal bovine serum (FBS), 1% Pen-Strep, and 1% Glutamax. Cells were grown to no more than 1×10^6 cells/mL to prevent differentiation before being split. Prior to assay cells were transferred to phenol red free media containing charcoal-stripped FBS. On the day of the assay cells were centrifuged down at 16.4 G for 5 minutes and washed with 50:1 HBSS/HEPES. Cells were resuspended at 1×10^7 cells/mL in 50:1 HBSS/HEPES. To the resuspended cells, 0.05% pluronic acid and 5 uM of fluorescent calcium indicator, Indo-1AM, were added. The dye solution was incubated for 0.5 hrs at room temperature with rocking. After 30 minutes cells were spun down, and resuspended in 50:1 HBSS/HEPES. Cells were placed on ice for at least 5 minutes and then resuspended in 8.5 mL of 50:1 HBSS/HEPES (containing probenacid) for agonism assays or 6.5 mL of 50:1 HBSS/HEPES (containing probenacid) for antagonism assays. For agonism assays 160 μL of cell suspension were added to a 96-well plate and were incubated at 37° for 10 minutes in a FlexStation® 3 plate reader (Molecular Devices). Inside the plate reader, 40 μL of agonist were added to each well and excited with 350 nm and read at emissions of 405 nm and 490 nm. For antagonist assays, 120 μL of cell suspension were added to a 96-well plate. In addition to the cell suspension 40 μL of antagonist were added to the wells. Cells with antagonists were incubated at 37° for 15 minutes in FlexStation® 3 plate reader (Molecular Devices). Inside the plate reader, 40 μL of agonist at the EC80 were added to each well and excited with 350 nm and read at emissions of 405 nm and 490 nm.
In vitro biological evaluation using calcium mobilization. HL-60 cells were grown in 10% charcoal-stripped RPMI 72 hours before assays were performed. Cells were centrifuged and counted with a hemocytometer from Hausser Scientific (Bedford, Mass.). The assay required 100,000 cells per well, for a total number of cells on a 96-well plate assay of about 1×10 (Matthews and Gustafsson, 2003). HL-60 cells (1×10 (Matthews and Gustafsson, 2003)) were incubated in 50:1 Hanks balanced salt solution (Millipore Sigma, Saint Louis, Mo. and HEPES (Gibco by Life Technologies, Gaithersburg, Md.) containing 5 μM indo1-AM (Thermo Fischer Scientific, Waltham, Mass.) and 0.05% pluronic acid (AAT Bioquest Inc., Sunnyvale, Calif.) for 0.5 h at RT. Cells were spun down and washed with 50:1 HBSS/HEPES, and resuspended in media. Resuspension was placed on ice for no longer than 5 mins. Cells were loaded into plate at 100,000 cells/well. For agonist cells were immediately incubated for 15 mins at 37° C. Following the 15 mins incubation FlexStation 3 Multimode Plate Reader (Molecular Devices, Sunnyvale, Calif.) added the appropriate amount of agonist and was read for 150 seconds at 37° C. For antagonists once the cells were seeded, antagonist was added and incubated for 15 mins at 37° C. After 15 mins of equilibration, the EC80 of G-1 was added by the FlexStation and read for 150 secs at 37° C. Calcium mobilization was determined ratiometrically using λex 350 nm and λem 405/490 nm.

GPER [2] = biological target: T1, GPER; assay: cAMP HTRF antagonism assay (G-1 induced inhibition of adenylate cyclase) in HL-60 cells; type: cell-based
Method: In vitro cAMP biological evaluation. A homogeneous time resolved fluorescence (HTRF®) components for cAMP was purchased by CisBio (Bedford, Mass.). HL-60 cells were grown in 10% charcoal-stripped RPMI media for 72 hours prior to assays. Cells were centrifuged and counted with a hemocytometer from Hausser Scientific (Horsham, Pa.). The total number of cells needed to complete the assay was determined based upon 8,000 cells/well. The determined number of cells was diluted in 5:1 (5×) stimulation buffer contain 500 μM of 3-isobutyl-1-methylxanthine (IBMX) (Sigma Aldrich, Saint Louis, Mo.). To an HTRF 96-well low volume white plate from CisBio, 5 μL of cold cell suspension was added to each plate, followed by 4 μL of (2.5×) of agonist or stimulation buffer (negative control and non-stimulated cells). Cells were covered with a clear plastic film and incubated at 37° C. for 15 mins in an incubator. After 15 mins cell 1 μL of 10 μM (10×) forskolin was added to each well. The plate was once again sealed and incubated at 37° C. for 15 mins. After 15 mins 5 μL of cAMP-d2 (acceptor) was added to all wells, including controls. Conversely, 5 μL of monoclonal anti-cAMP Eu3^+ cryptate (donor) was added to only the wells with test compound and non-stimulated cells. Following addition, the plate was sealed, covered with aluminum foil, and incubated at room temperature for 30 mins. After the allotted time cells were read using Flexstation3 and with λex 314 nm and λem 665 nm. For an antagonism platform the procedure was slightly altered. The EC80 of G-1 was recalculated based upon cAMP agonism results. To the plate, 2 μL of (5×) antagonist were added dose wise followed by the addition of 5 μL of cold cell suspension to all wells (top and bottom well were designated as G-1 control and forskolin control, respectively). Cells and antagonists were incubated for 15 mins at 37° C. After 15 mins, 2 μL of the (5×) EC80 of G-1 was added to wells with antagonist. […] Cells were allowed to equilibrate at room temperature for 30 minutes before being read at λex 314 nm and λem 665 nm.

ERβ = biological target: T2, ERβ (Homo sapiens, UniProt Q92731); assay: ERβ PolarScreen fluorescence polarization competitor assay; type: binding; details: below 10 μM
T2 construct: purchased Invitrogen (Carlsbad, Calif.)
T2 sequence (Q92731 whole entry): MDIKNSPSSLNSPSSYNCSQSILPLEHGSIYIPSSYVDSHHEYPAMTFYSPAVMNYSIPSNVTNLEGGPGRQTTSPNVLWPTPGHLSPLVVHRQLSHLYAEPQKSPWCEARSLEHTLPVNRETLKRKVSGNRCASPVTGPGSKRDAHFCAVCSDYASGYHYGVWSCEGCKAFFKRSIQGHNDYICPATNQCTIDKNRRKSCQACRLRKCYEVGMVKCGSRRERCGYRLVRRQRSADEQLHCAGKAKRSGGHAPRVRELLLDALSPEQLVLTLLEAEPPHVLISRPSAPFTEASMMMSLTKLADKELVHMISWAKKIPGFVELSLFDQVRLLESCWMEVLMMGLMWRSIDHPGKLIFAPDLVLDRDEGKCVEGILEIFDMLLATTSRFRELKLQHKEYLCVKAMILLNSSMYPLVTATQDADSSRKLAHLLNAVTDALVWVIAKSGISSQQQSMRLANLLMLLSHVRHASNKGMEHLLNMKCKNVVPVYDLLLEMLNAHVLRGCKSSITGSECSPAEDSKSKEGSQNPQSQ
Method: (§1) ERα and ERβ Fluorescence Polarization Assay. The ERα and ERβ PolarScreen™ Competitor Assays by Invitrogen (Carlsbad, Calif.) were purchased. The concentrations of the ERα and ERβ enzyme varied between the two assays. A 4× sample of ERα was prepared for a final concentration of 75 nM. Conversely, a 4× sample of ERβ was prepared for a final concentration of 23 nM within the assay. For both ERα and ERβ a 4× aliquot of Fluoromone was prepared for a final assay concentration of 4.5 nM. Despite the differences in concentration of ERα and ERβ, the binding assay protocol for the two different enzymes remained the same. Drug dilutions were prepared for a 2× dilution in the ER specific buffer that was provided within the assay kit. In addition to the drug dilutions a 2× aliquot of Fluoromone was prepared by adding 10 μL of 4× with 10 μL of ER specific buffer. A 2× dilution of enzyme and fluorophore was achieved by adding equal portions of each to each other. To a black 384-plate well plate, 10 μL of compound were added to the wells followed by 10 μL of the 2× mixture of enzyme and fluoromone. Two controls were included in the plate design. In one control, enzyme and compound were omitted so that only ER specific buffer and fluoromone remained. A separate control contained the enzyme and fluoromone control. […] The plate was incubated at RT for 2 hours before being read with λex 485 nm and λem 535 nm.

ERα = biological target: T3, ERα (Homo sapiens, UniProt P03372); assay: ERα PolarScreen fluorescence polarization competitor assay; type: binding
T3 construct: purchased Invitrogen (Carlsbad, Calif.)
T3 sequence (P03372 1-595): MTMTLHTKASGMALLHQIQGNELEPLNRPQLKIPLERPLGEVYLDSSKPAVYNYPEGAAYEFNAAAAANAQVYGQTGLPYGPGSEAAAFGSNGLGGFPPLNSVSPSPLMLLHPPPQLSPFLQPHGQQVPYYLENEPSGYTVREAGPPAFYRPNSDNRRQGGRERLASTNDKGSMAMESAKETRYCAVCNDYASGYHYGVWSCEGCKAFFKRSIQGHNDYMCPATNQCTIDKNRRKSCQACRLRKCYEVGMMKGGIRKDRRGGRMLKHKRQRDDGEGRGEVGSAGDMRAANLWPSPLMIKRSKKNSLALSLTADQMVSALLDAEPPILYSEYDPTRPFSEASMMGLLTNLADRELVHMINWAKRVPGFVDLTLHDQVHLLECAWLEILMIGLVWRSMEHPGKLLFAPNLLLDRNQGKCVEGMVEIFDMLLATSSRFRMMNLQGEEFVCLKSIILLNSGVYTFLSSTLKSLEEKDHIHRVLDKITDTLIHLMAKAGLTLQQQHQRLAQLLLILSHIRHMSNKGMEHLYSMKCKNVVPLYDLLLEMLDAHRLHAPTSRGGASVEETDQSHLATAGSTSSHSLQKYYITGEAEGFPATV
Method: as §1

T1 sequence (Q99527 whole entry): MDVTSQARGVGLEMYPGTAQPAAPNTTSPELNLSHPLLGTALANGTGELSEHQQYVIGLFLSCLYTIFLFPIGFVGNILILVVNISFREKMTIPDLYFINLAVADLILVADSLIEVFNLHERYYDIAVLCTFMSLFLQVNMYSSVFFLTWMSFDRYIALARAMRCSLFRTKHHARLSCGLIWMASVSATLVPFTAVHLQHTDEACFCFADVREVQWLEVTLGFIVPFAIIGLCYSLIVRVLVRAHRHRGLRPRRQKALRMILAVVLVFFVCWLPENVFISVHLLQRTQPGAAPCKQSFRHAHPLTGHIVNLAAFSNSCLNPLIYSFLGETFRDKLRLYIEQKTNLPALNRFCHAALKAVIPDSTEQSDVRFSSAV

Row | Compound | IC50 (GPER [1]) [nM] | other results
1 | CC(C)(C)c1ccc(NCc2ccc(-c3ccccc3)cc2)c(C2CCCCC2)c1 [Compound 20] | 132 ± 145 | 
2 | CC(C)(C)c1ccc(NCc2ccccc2)c(C2CCCCC2)c1 [Compound 23] | 331 ± 160 | 
3 | COc1ccc(CNc2ccc(C(C)(C)C)cc2C2CCCCC2)cc1 [Compound 22] | 874 ± 49 | 
4 | CC(C)c1ccc(NCc2ccc3ccccc3c2)c(C2CCCCC2)c1 [Compound 5] | 260 ± 110 | 
5 | CC(C)(C)c1ccc(NCc2ccc(Cl)c(Cl)c2)c(C2CCCCC2)c1 [Compound 25] | 657 ± 94 | 

Further lines, with some results ahead:

Row | IC50 (GPER [1]) [nM] | Compound | other results
6 | 141 ± 14 | CC(C)(C)c1ccc(NCc2ccc(Cl)cc2)c(C2CCCCC2)c1 [Compound 24] | 
7 | 60.8 ± 18 | Cc1ccc(CNc2ccc(C(C)(C)C)cc2C2CCCCC2)cc1 [Compound 21] | Antagonism of G-1 induced inhibition of adenylate cyclase (GPER [2]; 100 nM): also observed, less so; Antagonism of G-1 induced inhibition of adenylate cyclase (GPER [2]; 1 μM exposure): caused a decrease in adenylate cyclase inhibition; Reduction of G-1 induced inhibition of cAMP formation / adenylate cyclase (GPER [2]; EC80 of G-1, 1 μM forskolin, concentration not given): able to decrease inhibition of adenylate cyclase; ERβ binding (ERβ): do not exhibit binding; ERα binding (ERα; 10 μM (highest concentration)): a low level of binding; ERα binding (ERα; below 10 μM): do not exhibit binding

— US11634378B2, “Compounds and methods targeting GPER in calcium disorders” (Saint Louis University, priority 2017, dated 2023)
